The values that follow come from US20160376286A1, “Pyrimidin-4-one derivatives and their use in the tratement, amelioration or prevention of a viral disease” (priority 2011, published 2016).

In one assay the test system is influenza A virus A/Aichi/2/68 (H3N2). Briefly: Cytopathic effect (CPE) assay H3N2 in MDCK cells. The assay is classed as cell-based, influenza A virus (A/Aichi/2/68 (H3N2)); MDCK cells. The conditions noted are these: Influenza A virus, H3N2, MDCK; activity conc 50 (μM); read-out: CPE H3N2 reduction (%). The protocol:
A possible measure of the […] antiviral activity of the compounds having the formula I or II is the CPE assay disclosed herein. […] In this connection, the reduction in the virus-mediated cytopathic effect (CPE) upon treatment with the compounds was calculated as follows: The cell viability of infected-treated and uninfected-treated cells was determined using an ATP-based cell viability assay (Promega). The response in relative luminescent units (RLU) of infected-untreated samples was subtracted from the response (RLU) of the infected-treated samples and then normalized to the viability of the corresponding uninfected sample resulting in % CPE reduction.
The influenza A virus (IAV) was obtained from American Tissue Culture Collection (A/Aichi/2/68 (H3N2); VR-547). Virus stocks were prepared by propagation of virus on Mardin-Darby canine kidney (MDCK; ATCC CCL-34) cells and infectious titres of virus stocks were determined by the 50% tissue culture infective dose (TCID50) analysis as described in Reed, L. J., and H. Muench. 1938, Am. J. Hyg. 27:493-497.
MDCK cells were seeded in 96-well plates at 2×10^4 cells/well using DMEM/Ham's F-12 (1:1) medium containing 10% foetal bovine serum (FBS), 2 mM L-glutamine and 1% antibiotics (all from PAA). Until infection the cells were incubated for 5 hrs at 37° C., 5.0% CO2 to form a -80% confluent monolayer on the bottom of the well. Each test compound was dissolved in DMSO and generally tested at 25 μM and 250 μM. In those cases where the compounds were not soluble at that concentration they were tested at the highest soluble concentration. The compounds were diluted in infection medium (DMEM/Ham's F-12 (1:1) containing 5 μg/ml trypsin, and 1% antibiotics) for a final plate well DMSO concentration of 1%. The virus stock was diluted in infection medium (DMEM/Ham's F-12 (1:1) containing 5 μg/m1Trypsin, 1% DMSO, and 1% antibiotics) to a theoretical multiplicity of infection (M01) of 0.05.
After removal of the culture medium and one washing step with PBS, virus and compound were added together to the cells. In the wells used for cytotoxicity determination (i.e. in the absence of viral infection), no virus suspension was added. Instead, infection medium was added. Each treatment was conducted in two replicates. After incubation at 37° C., 5% CO2 for 48 hrs, each well was observed microscopically for apparent cytotoxicity, precipitate formation, or other notable abnormalities. Then, cell viability was determined using
CellTiter-Glo luminescent cell viability assay (Promega). The supernatant was removed carefully and 65 μl of the reconstituted reagent were added to each well and incubated with gentle shaking for 15 min at room temperature. Then, 60 μl of the solution was transferred to an opaque plate and luminescence (RLU) was measured using Synergy HT plate reader (Biotek).
Relative cell viability values of uninfected-treated versus uninfected-untreated cells were used to evaluate cytotoxicity of the compounds. Substances with a relative viability below 80% at the tested concentration were regarded as cytotoxic and retested at lower concentrations.
Reduction in the virus-mediated cytopathic effect (CPE) upon treatment with the compounds was calculated as follows: The response (RLU) of infected-untreated samples was subtracted from the response (RLU) of the infected-treated samples and then normalized to the viability of the corresponding uninfected sample resulting in % CPE reduction.
`O=C(NO)c1cc(NS(=O)(=O)Cc2cccc(Br)c2)ccn1`: the inhibition at 50 µM worked out at 2.29%.
As to `O=C(NO)c1cc(NS(=O)(=O)Cc2ccc(Cl)cc2)ccn1`, the inhibition at 50 µM was -3.88%.
For `O=C(NO)c1cc(NS(=O)(=O)Cc2cc(Cl)cc(Cl)c2)ccn1`, the inhibition at 50 µM was found to be 9.3%.
In the case of `O=C(NO)c1cc(NS(=O)(=O)Cc2cccc(C(F)(F)F)c2)ccn1`, the inhibition at 50 µM was -5.8%.

Staying with this assay, now noted: activity conc 1.
Consider `O=C(c1cc(-c2ccccc2)ccn1)N(O)Cc1ccc(F)cc1`, for which the “CPE H3N2 reduction (%)” value is −3.2%.

Still in this assay, the particulars now being: activity conc 2.
Take `COC1=CC=C(c2ccnc(C(=O)N(O)Cc3ccccc3)c2)CC1`: the “CPE H3N2 reduction (%)” value is recorded as −2.5%.
For `O=C(c1cc2ccccc2cn1)N(O)CCCc1ccccc1`, the “CPE H3N2 reduction (%)” value came out at 4.4%.
Same read-out and setting: next, `CC(C)(C)OC(=O)N1C=C(c2ccnc(C(=O)N(O)Cc3ccccc3)c2)CCC1`: 3.9%; `Cc1c(-c2cc(C#N)ccc2Cl)sc2nc(N)[nH]c(=O)c12` [SAV-7617]: 2 5.1%; `O=C(c1cc(N2CCCCC2)ccn1)N(O)CCCc1ccccc1`: 7.7%.
`CC(C)c1cccc(-c2ccc(C(=O)N(O)CCc3ccccc3)nc2)c1`: the “CPE H3N2 reduction (%)” value stood at 2.1%.

The same assay, now with this note: activity conc 5.
Regarding `O=C(c1ccc(N2CCCCC2)cn1)N(O)Cc1ccccc1`, the “CPE H3N2 reduction (%)” value is −3.4%.
Still for that read-out and setting: next, `CN(c1ccnc(C(=O)NO)c1)S(=O)(=O)Cc1ccccc1`: −1.7%; `O=C(c1cc(N2CCCCC2)cc[n+]1[O-])N(O)Cc1ccccc1`: −1.83%; `O=C(NO)c1cc(-c2ccc(Cl)cc2)ccn1`: 26.6%.
Still for that read-out and setting: with `Cc1c(-c2cccc(C#N)c2)sc2nc(N)[nH]c(=O)c12` [SAV-7594] the figure was 14.5%; with `Cc1c(-c2ccccc2)sc2nc(Nc3ccccc3)[nH]c(=O)c12` [SAV-7638], 8.7%.
In the case of `O=C(c1cc(-c2ccc(Cl)c(Cl)c2)ccn1)N(O)Cc1ccccc1`, the “CPE H3N2 reduction (%)” value is reported as 8.1%.
Same read-out and setting: next, `CNC(=O)c1cccc(-c2ccnc(C(=O)N(O)Cc3ccccc3)c2)c1`: −7.5%; `CC(C)(C)OC(=O)N1CC=C(c2ccnc(C(=O)N(O)Cc3ccccc3)c2)CC1`: 1.2%.

Still in this assay, the particulars now being: activity conc 10.
As for `O=C(c1cc(-c2ccccc2)ccn1)N(O)Cc1ccccc1`, the “CPE H3N2 reduction (%)” value is recorded as −9.3%.
As to `Nc1nc2sc(Cc3ccccc3)cc2c(=O)[nH]1` [SAV-7517], the “CPE H3N2 reduction (%)” value is given as 39.3 13 −2.64%.
Turning to `Cc1cccc(-c2ccc(C(=O)N(O)Cc3ccccc3)nc2)c1`, the “CPE H3N2 reduction (%)” value was found to be 15.5%.
Consider `Cc1c(-c2cccc(Cl)c2F)sc2nc(N)[nH]c(=O)c12` [SAV-7616], for which the “CPE H3N2 reduction (%)” value was 68.7%.

The assay is the same for the next values; noted with them: activity conc 12.
In the case of `O=C(c1ccc(-c2ccccc2)cn1)N(O)Cc1ccccc1`, the “CPE H3N2 reduction (%)” value turned out to be 13.4%.

The assay is the same for the next values; noted with them: activity conc 20.
Regarding `Cc1c(-c2ccc(Cl)cc2)sc2nc(N)[nH]c(=O)c12` [SAV-7579], the “CPE H3N2 reduction (%)” value is 21.4 11.3 0.27%.
As for `CCONC(=O)c1ccc(-c2cccc(CN(C)CCCc3ccccc3)c2)cn1.Cl`, the “CPE H3N2 reduction (%)” value is listed as 1.6%.
In the case of `COc1ccc(-c2sc3nc(N)[nH]c(=O)c3c2C)cc1` [SAV-7575], the “CPE H3N2 reduction (%)” value is 35.9 9.02 4%.
For `Cc1c(-c2cc(C#N)ccc2F)sc2nc(N)[nH]c(=O)c12` [SAV-7615], the “CPE H3N2 reduction (%)” value worked out at 59.2%.
As for `Cl.O=C(c1cc(N2CCC(F)(F)C2)ccn1)N(O)Cc1ccccc1`, the “CPE H3N2 reduction (%)” value was found to be 4.6%.
For `CC(C)(C)OC(=O)N1CCC(c2ccnc(C(=O)N(O)Cc3ccccc3)c2)CC1`, the “CPE H3N2 reduction (%)” value stood at 31.3%.
For `Cl.O=C(NO)c1cc(NS(=O)(=O)Cc2cc(Cl)cc(Cl)c2)ccn1`, the “CPE H3N2 reduction (%)” value stood at 28.9%.

The assay is the same for the next values; noted with them: activity conc 25.
Take `Cc1c(Cc2ccccc2)sc2nc(N)[nH]c(=O)c12` [SAV-7521]: the “CPE H3N2 reduction (%)” value is on record as 64.7 6 33.6%.

The assay is the same for the next values; noted with them: activity conc 50 (μM).
In the case of `CN(O)C(=O)c1cc(N2CCOCC2)ccn1`, the “CPE H3N2 reduction (%)” value amounted to 5.7%.
The same measure, in the same setting: with `Cc1c(-c2ccc(F)cc2)sc2nc(N)[nH]c(=O)c12` [SAV-7601] the figure was 69.2 1.1 44.3%; with `CN(C)CCNC(=O)c1cccc(-c2ccnc(C(=O)N(O)Cc3ccccc3)c2)c1`, 8.9%; with `CN(C)C1CCN(c2ccnc(C(=O)N(O)Cc3ccccc3)c2)CC1`, 12.3%.
On the same count and under the same terms, with `CCON(C)C(=O)c1cccc(C)n1` the figure was −1.9%; with `CCONC(=O)c1cc(N)ccn1.Cl`, 10.5%; with `CON(C)C(=O)c1ccc2ccccc2n1`, −1.2%.
As to `Cc1c(-c2cccc(CN(C)C)c2)sc2nc(N)[nH]c(=O)c12` [SAV-7629], the “CPE H3N2 reduction (%)” value came out at 38.3%.
Take `Cl.Cl.O=C(c1cc(N2CCNCC2)ccn1)N(O)Cc1ccccc1`: the “CPE H3N2 reduction (%)” value is −4.5%.
In the case of `O=C(NO)c1ccc(N2CCCC2)cn1`, the “CPE H3N2 reduction (%)” value was −4.3%.
In the case of `O=C(NOC(=O)c1cc(N2CCCCC2)ccn1)c1cc(N2CCCCC2)ccn1`, the “CPE H3N2 reduction (%)” value is recorded as 29%.
As for `Cc1c(-c2ccnc(Cl)c2F)sc2nc(N)[nH]c(=O)c12` [SAV-7633], the “CPE H3N2 reduction (%)” value is on record as 63.1%.
Same read-out and setting: next, `O=C(NO)c1cc(N2CCOCC2)ccn1`: −7.1%; `CCONC(=O)c1cccc(C)n1`: −2.1%.
`Cl.O=C(NO)c1cc(NS(=O)(=O)Cc2cccc3cccnc23)ccn1`: the “CPE H3N2 reduction (%)” value is on record as 24.39%.
Turning to `O=C(c1cc(NS(=O)(=O)Cc2ccccc2)ccn1)N(O)Cc1ccccc1`, the “CPE H3N2 reduction (%)” value is listed as 6.2%.
Turning to `Cc1c(-c2cccc(C(F)(F)F)c2)sc2nc(N)[nH]c(=O)c12` [SAV-7581], the “CPE H3N2 reduction (%)” value is recorded as 87.8%.
On to `CN(OCc1ccccc1)C(=O)c1ccc(-c2ccccc2)cn1`, for which the “CPE H3N2 reduction (%)” value is given as −2.6%.
`CN1CC=C(c2ccnc(C(=O)N(O)Cc3ccccc3)c2)CC1`: the “CPE H3N2 reduction (%)” value is reported as 10.6%.
For the molecule `Cc1c(-c2ccc(Cl)cc2F)sc2nc(N)[nH]c(=O)c12` [SAV-7618], the “CPE H3N2 reduction (%)” value is on record as 77.4%.
In the case of `CN1CCN(c2ccnc(C(=O)N(O)Cc3ccccc3)c2)CC1`, the “CPE H3N2 reduction (%)” value stood at 2.4%.
In the case of `O=C(c1cc(C2CCCNC2)ccn1)N(O)Cc1ccccc1` (stereo not drawn), the “CPE H3N2 reduction (%)” value is on record as 6.1%.
On to `Cc1c(C2=CCNCC2)sc2nc(N)[nH]c(=O)c12` [SAV-7614], for which the “CPE H3N2 reduction (%)” value was 190 10.6%.
Still for that read-out and setting: with `N/C(=N\O)c1ccc(C(=O)NO)nc1` the figure was −4.8%; with `CN1CCN(c2ccnc(C(=O)N(C)O)c2)CC1`, 2.6%.
In the case of `CCONC(=O)c1ccccn1`, the “CPE H3N2 reduction (%)” value is 12.5%.
On to `CCONC(=O)c1cc(N2CCOCC2)ccn1.Cl`, for which the “CPE H3N2 reduction (%)” value worked out at 1.3%.
On the same count and under the same terms, next, `CCONC(=O)c1ccc2ccccc2n1`: −2.2%; `Cc1c(-c2ccc(F)c(C#N)c2F)sc2nc(N)[nH]c(=O)c12` [SAV-7628]: 84.3%.
For `NC1CCN(c2ccnc(C(=O)N(O)Cc3ccccc3)c2)CC1`, the “CPE H3N2 reduction (%)” value worked out at 3.2%.
With `Cl.O=C(c1cc(C2=CCCNC2)ccn1)N(O)Cc1ccccc1`, the “CPE H3N2 reduction (%)” value stood at 9.5%.
As to `CCONC(=O)c1cc(NCC2CCN(Cc3ccccc3)CC2)ccn1.Cl.Cl`, the “CPE H3N2 reduction (%)” value was 14.8%.
`Cl.O=C(c1cc(C2CCNCC2)ccn1)N(O)Cc1ccccc1`: the “CPE H3N2 reduction (%)” value is −1.4%.
